Experimental data taken from paper PMC3723632, “A Multi-targeted Drug Candidate with Dual Anti-HIV and Anti-HSV Activity” (PLoS Pathogens, 2013).

Tests used:
PBMC = assay: Flow cytometry of activation markers on PBMC; assay type: cell-based, human; conditions: 72 h exposure
Description: Figure 10 Expression of activation markers on PBMCs treated with adefovir, tenofovir, or PMEO-DAPym. PBMCs were incubated with adefovir, tenofovir, or PMEO-DAPym for 3 days. The mitogenic lectin PHA (at 2 µg/ml) was included as a positive control. We measured cell surface expression of CD4 and the activation markers CD69 (top panel), CD25 (middle panel), and HLA-DR (bottom panel) using flow cytometry with the […] CD4-specific mAb (clone SK3) and the phycoerythrin-labeled CD69, CD25, HLA-DR-specific mAbs. Shown are means ± SEM from two independent experiments.
PBMC were cultured in the presence of adefovir, tenofovir, and PMEO-DAPym and incubated at 37°C in a humidified, 5% CO2-controlled atmosphere. The expression of cellular activation markers was measured after 3 days of culture. […] Finally, the cells were washed with PBS, fixed with 1% formaldehyde solution, and analyzed with a FACSCalibur (BD Biosciences, San Jose, CA); data were acquired with CellQuest software and further analyzed with the FLOWJO software (Tree Star, San Carlos, CA). The expression of the chemokine receptors was measured after 24 h, and PBMC were incubated with PerCP-conjugated anti-CD4 mAb (clone SK3) in combination with APC-conjugated anti-CXCR4 mAb (clone 12G5) and PE-conjugated anti-CCR5 (clone 2D7) or anti-CXCR3 (clone 1C6). […]

M/M cultures = assay: Viability of M/M cultures; assay type: cell-based, human; conditions: 100 µg/ml
Description: Monocyte/macrophage (M/M) lineage cells can be infected by HSV-2 and HIV-1. M/M reside in genital herpes lesions and are thought to be reservoirs of HIV [6], [23]. […] Lower concentrations were dose-dependently inhibitory, with EC50 values ranging between 0.02 and 0.2 µg/ml (Table 1, Table 3).

[1] = system: organotypic epithelial raft cultures of the PHKs; assay: Histological examination of cell differentiation in raft cultures; conditions: highest tested concentration 50 µg/ml
Description: Primary human keratinocytes (PHKs) were seeded on top of collagen gels in 24-well microtiter plates and maintained submerged for 24–48 h. The collagen rafts were then raised and placed into stainless-steel grids at the interface between air and the liquid culture medium. The epithelial cells were allowed to stratify. Rafts were infected with 5,000 PFU of HSV-1KOS or HSV-2G at 10 days post lifting and treated with adefovir or PMEO-DAPym. Five days later, one series of rafts was fixed in 10% buffered formalin, embedded in paraffin, and stained with hematoxylin and eosin for histological evaluation.

SMILES: Nc1cc(OCCOCP(=O)(O)O)nc(N)n1 [PMEO-DAPym, 6-phosphonylmethoxyethoxy-2,4-diaminopyrimidine]
- upregulation of cell activation markers (HLA-DR, CD25, CD69 and others) (PBMC): none of the cell activation markers
- effect on the viability of M/M cultures (M/M cultures): No effect on the viability
- effect on cell differentiation (histological examination) [1]: no effect on cell differentiation
